From patent publication US5441743A, “Marine compositions bearing preferentially concentrated domains of non-tin, organo anti-fouling agents” (priority 1993, dated 1995)
Where “and” joins values, the source holds several entries; their conditions need not be identical. Equal entries are not always repeated. Where two headings read alike, the source gives them in different places.

How the values were obtained:
fouling = test: Anti-fouling panel exposure in the ocean at Daytona Beach, rating 0 to 10; details: for General Rating, 6 Mos. / General Rating, 1 Mo. / General Rating, 4 Mos.: Example 15, Table 7, agent as is
From the text: Test panels were 15.24 cm×30.48 cm (6 in×12 in) in dimension and were constructed of a white plastic top surface and a black plastic bottom surface. The test panels were coated on both sides with the two formulations above-tabulated at a film thickness of about 5 mils dry. The test panels then were exposed horizontally with the white surface upward and the black surface downward in the ocean at Daytona Beach, Fla., U.S.A. A control panel consisted of 12 wt-% triphenyl tin hydroxide dispersed in a resinous vinyl binder (80 wt-parts of a vinyl chloride polymer, VAGH brand, Union Carbide Corporation, New York, N.Y.) reduced in methyl ethyl ketone solvent to 50% solids content. After exposure, the control and test panels were inspected and assigned a numerical rating from 0 to 10 based on the amount of surface area of the panel that was free from fouling, a rating of "10" corresponding to perfect protection. The following results were recorded.

rats or mice = details: cited from earlier work
rats = details: oral; cited from earlier work
fish = details: in words; cited from earlier work
mammalian = details: in words; cited from earlier work
[1] = SEM / Energy Dispersion Spectroscopy analysis of cured epoxy resin; type: physicochemical; details: Example 16, Sample 2 (FIG. 2); EDS
From the text: An epoxy resin system was examined for its ability to be modified so as to preferentially influence the concentration or location of an anti-fouling agent (Nopocide N-96, see Example 1) within its structure. A direct comparison was made between an epoxy resin (EPON 828 epoxy resin, diglycidyl ether of bis-phenol A, Shell Chemical Company) and the same epoxy resin containing a domain structuring polymeric material, such as a polysulfide resin (LP-32 polysulfide resin, Thiokol Corporation). Both systems contained the same anti-fouling agent. The compositions formulated are set forth below: […]

[2] = Example 14, Table 6, additive at 20 wt-%
[3] = Example 12, Table 4, additive at 20 wt-%
[4] = listed as 2,3-Dichloro-1,4-Naphthaquinone
[5] = Example 11, Table 3, additive at 20 wt-%, 10 is perfect protection
[6] = Example 10, 20 wt-% in Control Paint, 10 is perfect protection
[7] = Example 13, Table 5, additive at 20 wt-%

O=C(Nc1cccc2c(NC(=O)n3ccnc3)cccc12)n1ccnc1
Rating After Exposure, 1 Months (fouling; [2]): 6-7 | Rating After Exposure, 4 Months (fouling; [2]): 0

O=C1OC(=O)C2C1C1(Cl)C(Cl)=C(Cl)C2(Cl)C1(Cl)Cl (centres unmarked) [1,4,5,6,7,7-hexachloro-5-norborene-2,3-dicarboxylic anhydride]
Rating After Exposure, 4 Months (fouling; [3]): 0

O=C1C(Cl)=C(Cl)C(=O)c2ccccc21 [2,3-dichloro-1,4-napthoquinone]
General Rating, 6 Mos. (fouling): 0 | General Rating, 1 Mo. (fouling; [4]): 7 and 5 | General Rating, 4 Mos. (fouling; [4]): 6 and 3

Nc1cc(Cl)ccc1Cl [2,5-Dichloroaniline]
Rating After Exposure, 4 Months (fouling; [5]): 0 | Rating After Exposure, 462 Days (fouling; [5]): 0

Nc1cc(Cl)cc(C(=O)O)c1Cl [2,5-dichloro,3-amino benzoic acid]
LD50 value (rats or mice; in vivo, po): 5,620

Nc1c(Cl)cc([N+](=O)[O-])cc1Cl [2,-6-dichloro, 4-nitroaniline]
Rating After Exposure, 4 Months (fouling; [5]): 0 | Rating After Exposure, 462 Days (fouling; [5]): 0

C=C(Cl)CSC(=S)N(CC)CC [2-chloro-2-propenyl diethylcarbamodithioate]
LD50 value (rats or mice; in vivo, po): 850

C=CCN(CC=C)C(=O)CCl [2-chloro-N,N-diallylacetamide]
General Rating, 1 Mo. (fouling): 5 | General Rating, 4 Mos. (fouling): 4 | General Rating, 6 Mos. (fouling): 0 | LD50 value (rats or mice; species not given, in mg/kg): 750 | LD50 value (rats): 700 mg/kg

CCNc1nc(Cl)nc(NC(C)C)n1 [2-isopropylamino-4-chloro-6-ethylamino triazine]
LD50 value (rats): 1869 mg/kg

Nc1ccc(Cl)c(Cl)c1 [3,4-Dichloroaniline]
Rating After Exposure, 4 Months (fouling; [5]): 0 | Rating After Exposure, 462 Days (fouling; [5]): 0

CN(C)C(=O)Nc1ccc(Cl)c(Cl)c1 [3-(3,4-Dichlorophenyl)-1,1-dimethyl urea]
Rating After Exposure, 1 Months (fouling; [2]): 9 | Rating After Exposure, 4 Months (fouling; [2]): 0

C=CCc1ccc(O)c(OC)c1 [Eugenol, 4-allyl-2-methoxyphenol]
General Rating, 1 Mo. (fouling): 9 and 7 | General Rating, 4 Mos. (fouling): 3 | General Rating, 6 Mos. (fouling): 0 | LD50 value (rats): 2,000 mg/kg

N#Cc1c(Cl)c(Cl)c(Cl)c(Cl)c1C#N [Nopocide, 1,2-dicyano, tetrachlorobenzene]
Rating After Exposure, 4 Months (fouling; [6]): 0 | Rating After Exposure, 462 Days (fouling; [6]): 0

c1ccc2c(c1)Nc1ccccc1S2 [Phenothiazine]
Rating After Exposure, 4 Months (fouling; [3]): 0

C#CC(C)(C)NC(=O)c1cc(Cl)cc(Cl)c1 [Pronamide, 3,5-dichloro-N-(3,3-dimethylpropyne)benzamide]
Rating After Exposure, 1 Months (fouling; [7]): 0 | Rating After Exposure, 4 Months (fouling; [7]): 0

C=CCC1=C(C)C(OC(=O)C2C(C=C(C)C)C2(C)C)CC1=O (centres unmarked) [allyl, methylhydroxy substituted cyclopententone ester of dimethylpropenyl cyclopropane carboxylic acid]
LD50 value (rats or mice; species not given, in mg/kg): 1,000

Nc1cnn(-c2ccccc2)c(=O)c1Cl [amino, chloro, phenyl derivative of azacyclohexamine]
LD50 value (rats or mice; species not given, in mg/kg): 3,030

O=C(O)CNCP(=O)(O)O [aminoacetic acid derivative of methylphosphonate]
LD50 value (rats or mice; species not given, in mg/kg): 4,300

OB(O)O [boric acid]
anti-fouling activity (fouling; in words): quite active as an anti-fouling agent | LD50 value (rats): 3,000 mg/kg

CCCCCCCCCCCCCCCC[n+]1ccccc1 [cetylpyridinium chloride]
LD50 value (rats): 200 mg/kg

CCCCCCCCCCCCCCCC[N+](C)(C)C.[Br-] [cetyltrimethylammonium bromide]
LD50 value (rats): 500 mg/kg

C=CCC1=C(C)C(OC(=O)[C@@H]2[C@@H](C=C(C)C)C2(C)C)CC1=O (stereo partly drawn) [d-Trans-Allerthrin]
Rating After Exposure, 1 Months (fouling; [7]): 0-1 | Rating After Exposure, 4 Months (fouling; [7]): 0

COP(=S)(OC)Oc1ccc(Sc2ccc(OP(=S)(OC)OC)cc2)cc1 [dimethoxythiophosphate derivative of diphenyl sulfide]
LD50 value (rats): 2030 mg/kg

C#CCOS(=O)OC1CCCCC1Oc1ccc(C(C)(C)C)cc1 (centres unmarked) [dimethylethylphenoxy-cyclohexyl-2-propynyl sulfite]
LD50 value (rats or mice; species not given, in mg/kg): 2,200

CC(C)C(C(=O)OC(C#N)c1cccc(Oc2ccccc2)c1)c1ccc(Cl)cc1 (centres unmarked) [diphenyl ether, chlorophenyl derivative of the isobutyric acid ester of hydroxyacetonitrile]
toxicity to fish (fish): toxic to fish | LD50 value (rats or mice; in vivo, po): 451

c1ccc(Nc2ccccc2)cc1 [diphenylamine]
General Rating, 1 Mo. (fouling): 5 | General Rating, 6 Mos. (fouling): 0 | General Rating, 4 Mos. (fouling; listed as Diphenylanaline): 4 and 3 | mammalian toxicity (mammalian): Low mammalian toxicity

CCCCCCCCCCCCNC(=N)N [dodecylguanidine monoacetate]
LD50 value (rats or mice; species not given, in mg/kg): 1,000

CCOC(=O)C(O)(c1ccc(Cl)cc1)c1ccc(Cl)cc1 [ethyl 4-chloro-alpha(4-chlorophenyl)alpha-hydroxy benzene acetate]
LD50 value (rats): 5,000 mg/kg

Oc1c(Cl)cc(Cl)c(Cl)c1Cc1c(O)c(Cl)cc(Cl)c1Cl [hexachlorophene]
chlorine concentration in round island domains [1]: 48% | chlorine concentration in sea-like domains [1]: 36%

CCN(CC)c1nc(C)cc(OP(=S)(OC)OC)n1 [methyl, diethylamino, dimethoxythiophosphate derivative of pyrimidine]
LD50 value (rats): 2,000 mg/kg

NC(=O)Cc1cccc2ccccc12 [napthalene acetamide]
LD50 value (rats or mice; in vivo, po): 1,000

Oc1ccccc1-c1ccccc1 [o-phenylphenol]
LD50 value (rats or mice; species not given, in mg/kg): 2,700

O=C(O)Cc1c(Cl)ccc(Cl)c1Cl [trichlorophenyl acetic acid]
LD50 value (rats or mice; species not given, in mg/kg): 1,780
